Format in all cases: functional
What all share (conditions): route intraperitoneal

The test system of test [1] is Gallus gallus. Put plainly: Anti-emetic activity against copper sulfate-induced emesis in 4 days old chicks assessed as inhibition of number of retching reflexes at 10 mg/kg, ip measured 10 mins after copper sulfate challenge.
Test [2] has as its system Gallus gallus. Nature of the test: Anti-emetic activity against copper sulfate-induced emesis in 4 days old chicks assessed as inhibition of number of retching reflexes at 50 mg/kg, ip measured 10 mins after copper sulfate challenge.
In test [3] the test system is Gallus gallus. Nature of the test: Anti-emetic activity against copper sulfate-induced emesis in 4 days old chicks assessed as inhibition of number of retching reflexes at 20 mg/kg, ip measured 10 mins after copper sulfate challenge.

Our source for the inhibition in vivo values is ChEMBL document CHEMBL1144151, “Two novel anti-emetic principles of Alpinia katsumadai” (1999).

Take `O=C(CCc1ccccc1)C[C@@H]1C[C@@H](c2ccccc2)c2c(cc(/C=C/c3ccccc3)oc2=O)O1` [KATSUMADAIN A]: the inhibition in vivo at 10 mg/kg in the test on Gallus gallus [1] was determined as 8.8%. The inhibition in vivo at 50 mg/kg with Gallus gallus [2] worked out at 50.2%. Also, the inhibition in vivo at 20 mg/kg with Gallus gallus [3] came to 14.5%.
Regarding `O=C(CCc1ccccc1)CC(/C=C/c1ccccc1)c1c(O)cc(/C=C/c2ccccc2)oc1=O` (centres undefined) [KATSUMADAIN B], the inhibition in vivo at 50 mg/kg in the test on Gallus gallus [2] amounted to 41.4%.
